Assay results published in EP3319638B1, “CINEOL-CONTAINING COMPOSITION FOR THE TREATMENT OF TUMOURS AND/OR CANCERS” (Maria Clementine Martin Klosterfrau Vertriebsgesellschaft …, priority 2015, dated 2017).
“Also recorded” adds a separate entry of the source.

Assays:
Wnt11 [1] = assay: RT2 EMT Profiler PCR array: Wnt11 mRNA level in HNSCC cell lines; format: cell-based, human; conditions: 100 µM, HNSCC cell lines (Fig. 4A)
Source text: PCR-Test zur humanen epithelial-mesenchymalen Transition (EMT) Mit dem "Human Epithelial to Mesenchymal Transition (EMT) RT^2 Profiler™ PCR Array" wird die Expression von 84 Schlüsselgenen, welche ihre Expression während dieses Prozesses verändern oder die Expression von sich verändernden Genen regulieren, festgestellt. Der Test umfasst für Zelloberflächenrezeptoren, extrazelluläre Matrix und das Zytoskelett kodierende Gene, Gene, welche Zelladhäsion, Migration, Motilität und Morphogenese steuern; sowie Gene für Signaltransduktion und Transkriptionsfaktoren, welche die EMT sowie die damit assoziierten Prozesse bedingen.
Weiterhin werden im Hinblick auf die Wnt/β-Catenin-Signalgebung aufgrund ihrer Involvierung in die Regulation der epithelial-mesenchymalen Transition (EMT) die transkriptionellen Profile verschiedener Gene, welche in Zusammenhang mit EMT stehen, in Reaktion auf 1,8-Cineol untersucht. Dafür wird der PCR-basierte "RT^2 EMT Profiler" eingesetzt, welcher die umfassende Analyse von 84 verschiedenen, in Zusammenhang mit EMT stehenden Genen erlaubt.

P-Akt (Threonin-308) = assay: Western blot: Akt phosphorylation at Thr-308 in HNSCC cell lines; format: cell-based, human; conditions: 100 µM, HNSCC cell lines (Fig. 3)
Procedure: (§1) Die im Rahmen der vorliegenden Erfindung untersuchten adhärenten humanen Kopf-Hals-Plattenepithel-Karzinom-Zelllinien (UT-SCC16A, UT-SCC-16B, UT-SCC-60A und UT-SCC-60B) werden in "Dulbecco's Modifiziertem Eagle's Medium" (DMEM, 4,5 g/l D-Glucose und L-Glutamin), welches mit 10 % fötalem Rinderserum (FBS) (beide Life Technologies, Carlsbad, CA, USA), 1 % Natriumpyruvat (PAN-Biotech, Aidenbach, Deutschland) und 1 % Antibiotika (10.000 U/ml Penicillin, 10.000 µg/ml Streptomycin) (Biochrom, Berlin, Deutschland) supplementiert ist, bei 37 °C unter 5 % CO2 und 95 % LuftAtmosphäre gelagert.
(§2) Die Zellen werden zweimal in eiskaltem PBS gewaschen und anschließend in RIPA-Puffer (Cell Signaling Technology, Danvers, MA, USA) mit Aprotinin, Pepstatin A, Protease Inhibitor Cocktail und Phenylmethansulfonylfluorid (Sigma-Aldrich, St. Louis, MO, USA) für 1,5 Stunden lysiert. Durch Zentrifugation (13.000 rpm, 4 °C, 10 Minuten) werden Zelltrümmer entfernt. Die Proteinkonzentration wird mittels des Bradford-Tests mit einfach konzentriertem Quick StartTM Dye Reagent (Bio-Rad Laboratories, Hercules, CA, USA) bestimmt. Es wird vierfach konzentrierter SDS-Probenpuffer hinzugefügt, und die Proben werden für 5 Minuten bei 95 °C denaturiert. Äquivalente Proteinmengen (30 µg) werden mittels SDS-PAGE in einem 10 % Polyacrylamidgel aufgetrennt und mittels Immunoblot auf Nitrocellulosemembranen übertragen. […]

Akt = assay: Western blot: Akt expression in HNSCC cell lines; format: cell-based, human; conditions: 100 µM, HNSCC cell lines (Fig. 3)
Procedure: as §1, §2

Fibroblastenzelllinie = assay: MTT assay: vitality and proliferation of a fibroblast cell line, 250 h culture; format: cell-based
Source text: (§3) Die Zellproliferation wird mittels eines quantitativen kolorimetrischen 3-(4,5-Dimethylthiazol-2-yl)-2,5-diphenyltetrazoliumbromid-basierten (MTT) Zelltests bestimmt. Dieser Test bestimmt die Anzahl der lebensfähigen Zellen auf Basis der mitochondrialen Konversion von MTT.
(§4) Dazu werden 5.000 Zellen in jedes Well einer 96-Well-Platte verteilt. Nach 24 Stunden Kultivierung werden vier verschiedene Konzentrationen von 5-Fluoruracil oder Cisplatin zu den Kulturen hinzugefügt oder die Zellen werden mit drei Dosen bestrahlt. Nach 48 Stunden werden in jedes Well 10 µl MTT-Farbstoff (5 mg/ml) zugefügt. Nach zwei Stunden Inkubation mit MTT wurden die Kristalle gelöst und vorsichtig für 24 Stunden bei Raumtemperatur geschüttelt. Mithilfe eines Multi-Well-ELISA-Lesegeräts wird die Absorption der reduzierten Formazan-Produkte in Kontrolle und Proben-Wells bei einer Welle von 570 nm und 690 nm bestimmt. Alle Wachstumsproben des MTT-Tests werden in dreifacher Ausführung ausgeführt.
(§5) Es werden weiterführende Untersuchungen durchgeführt zur Analyse des Einflusses von Cineol auf die Vitalität und Proliferation verschiedener permanenter Zelllinien. Hierzu werden einerseits die zwei HNSCC-Zelllinien und des Weiteren eine Fibroblastenzelllinie verwendet. Diese werden über einen Zeitraum von 250 Stunden mit verschiedenen Cineol-Konzentrationen kultiviert (1 mM bis 10 mM) und die Vitalität der Zellen wird jeweils mittels eines MTT-Assays untersucht.

Wnt11 [2] = assay: Western blot: Wnt11 protein expression in HNSCC cell lines; format: cell-based, human
Procedure: Die Zellen werden zweimal in eiskaltem PBS gewaschen und anschließend in RIPA-Puffer (Cell Signaling Technology, Danvers, MA, USA) mit Aprotinin, Pepstatin A, Protease Inhibitor Cocktail und Phenylmethansulfonylfluorid (Sigma-Aldrich, St. Louis, MO, USA) für 1,5 Stunden lysiert. Durch Zentrifugation (13.000 rpm, 4 °C, 10 Minuten) werden Zelltrümmer entfernt. Die Proteinkonzentration wird mittels des Bradford-Tests mit einfach konzentriertem Quick StartTM Dye Reagent (Bio-Rad Laboratories, Hercules, CA, USA) bestimmt. Es wird vierfach konzentrierter SDS-Probenpuffer hinzugefügt, und die Proben werden für 5 Minuten bei 95 °C denaturiert. Äquivalente Proteinmengen (30 µg) werden mittels SDS-PAGE in einem 10 % Polyacrylamidgel aufgetrennt und mittels Immunoblot auf Nitrocellulosemembranen übertragen. Für die Proteinextraktion aus Geweben werden die Gewebe zunächst in 500 µl RIPA-Puffer mit Protease-Inhibitoren unter Einsatz des TissueLyser LT (Qiagen, Hilden, Deutschland) homogenisiert, anschließend inkubiert und wie zuvor beschrieben zentrifugiert.
Die Membranen werden mit TBS, enthaltend 3 % BSA oder 3 % Milchpulver, für 1 Stunde bei Raumtemperatur geblockt und anschließend mit dem primären Antikörper über Nacht bei 4 °C inkubiert. Nach einem Waschschritt mit TBS werden die Membranen mit dem speziesspezifischen sekundären Antikörper für 1 Stunde bei Raumtemperatur inkubiert. Die Proteinbanden werden unter Einsatz von Amersham™ ECL™ Primer Western Blotting Detection Reagent (GE Healthcare, Chalfont St Giles, Buckinghamshire, UK) und Fusion-FX7 sowie der korrespondierenden Software Fusion Bio-1D V12.14 (Vilber-Lourmat, Eberhardzell, Deutschland) nach ausgiebigem Waschen visualisiert. Die Nitrozellulosemembranen werden über Nacht bei 4 °C mit einem GAPDH-Antikörper inkubiert, um die Beladung jeder Spur zu bestimmen. Die Membranen werden nochmals gewaschen und mit dem sekundären Antikörper und ECL Detektionsreagenz inkubiert. […]

aktivem β-Catenin = assay: Western blot of whole-cell protein: expression level of active β-catenin in HNSCC cell lines; format: cell-based, human; conditions: 24 h incubation, 100 µM, versus medium control (Fig. 1A)
Procedure: as §1
(§6) Anti-Phospho-GSK-3α/β-Antikörper (Serin-21/-9) (#9331) und Anti-GAPDH-Antikörper (#2118) werden über Cell Signaling Technology (Danvers, MA, USA) bezogen. Beide Antikörper werden in einer […]-Verdünnung in TBS mit 3 % BSA (PAA Laboraties, Pasching, Österreich) verwendet. Anti-Phospho-GSK-3a/β-Antikörper (Y279/Y216) (#ab6847) werden von Abcam (Cambridge, UK) erhalten und in einer 1 : 1.000-Verdünnung in TBS mit 3 % BSA verwendet. Der gegen aktives-β-Catenin gerichtete Antikörper (#05-665) wird über Merck Milipore (Billerica, MA, USA) bezogen und in einer Verdünnung von 1 : 2.000 in TBS und 3 % Milchpulver (Carl Roth, Karlsruhe, Deutschland) verwendet. […]

[3] = tested on: Phospho-GSK-3 (Serin-9/-21); assay: Immunohistochemistry: subcellular (endolysosomal) localisation of phospho-GSK-3; format: cell-based, human; conditions: 100 µM, versus control medium (Fig. 2)
Procedure: Zur Detektion von […] innerhalb der Tumorzellen wird eine immunohistochemische Methode eingesetzt. Die Zellen werden 24 Stunden vor der Behandlung mit 100 µM Cineol in 4-Well-Kammerobjektträgern (Sarstadt AG, Numbrecht, Deutschland) überführt. Nach der Inkubation wurde das Medium entfernt und die Zellen wurden zweimal in PBS gewaschen. Zur intrazellulären Färbung wurden die Zellen mit 0,1 % Triton-X-100 (Sigma-Aldrich Chemie GmbH, Steinheim) in PBS fixiert. Der spezifische primäre Antikörper Anti-Phospho-GSK-3α/β (Serin-21/-9) (#9331) (Cell Signaling, Danvers, MA, USA) wird mit einem Antikörper-Verdünnungspuffer, welcher Blocking-Puffer (DCS LabLine, DCS, Hamburg, Deutschland) enthält, auf 1 : 50 verdünnt und in einer luftbefeuchteten Kammer für 1 Stunde bei Raumtemperatur (RT) inkubiert. Nach Waschen mit PBS wird der zweite Antikörper Ziege-anti-Maus FITC (Jackson ImmunoResearch Laboratories, West Grove, USA) in einer Verdünnung von 1 : 100 für 45 Minuten inkubiert. Die Zellen werden dreimal mit PBS gespült. Die Zellkerne werden für 1 Minute unter Einsatz von DAPI (1 µg/ml, Roche Diagnostics, Mannheim, Deutschland) gefärbt. Die Proben werden dreimal für 5 Minuten mit PBS gespült und anschließend in Fluoromount G (Southern Biotechnologies Associates, Birmingham, Alabama, USA) eingebettet. […]

HNSCC-Zellen = assay: MTT test: proliferation and viability of HNSCC cells, 288 h incubation; format: cell-based, human; conditions: 700 µM, MTT (Fig. 5)
Source text: as §3, §4
Dosisabhängige Inhibition der Proliferation von HNSCC durch 1,8-Cineol Um zu bestimmen, ob die Behandlung mit 1,8-Cineol zu einer Inhibition der zellulären Lebensfähigkeit von HNSCC führt, werden MTT-Tests durchgeführt. Zu diesem Zweck werden die Zellen für 288 Stunden in 300 µM bzw. 700 µM Cineol inkubiert.

[4] = tested on: GSK-3α/β (Tyrosin-279/-216); assay: Western blot: phospho-GSK-3α/β at Tyr-279/-216 in HNSCC cell lines; format: cell-based, human; conditions: 100 µM, HNSCC cell lines (Fig. 1C)
Procedure: as §1, §6

HNSCC-Zelllinien = assay: MTT assay: vitality and proliferation of HNSCC cell lines, 250 h culture; format: cell-based, human
Source text: as §3, §4, §5

[5] = tested on: phosphoryliertem GSK-3α/β (Serin-9/-21); assay: Western blot: phosphorylation level of GSK-3α/β at Ser-9/-21 in HNSCC cell lines; format: cell-based, human; conditions: 100 µM, HNSCC cell lines (Fig. 1B)
Procedure: as §1, §6

[6] = from a concentration of 1mM to 2mM

CC12CCC(CC1)C(C)(C)O2 [1,8-Cineol, 1,3,3-Trimethyl-2-oxabicyclo[2.2.2]octan]
mRNA-Level von Wnt11 (Wnt11 [1]): starken Rückgang der mRNA-Level von Wnt11
Phosphorylierung von Threonin-308 von Akt (P-Akt (Threonin-308)): Weder die Expression noch die Phosphorylierung von Threonin-308 von Akt wird in den analysierten Zelllinien nennenswert beeinflusst
Expression von Akt (Akt): Weder die Expression noch die Phosphorylierung von Threonin-308 von Akt wird in den analysierten Zelllinien nennenswert beeinflusst
Einfluss auf die Progression und Vitalität von Fibroblasten (Fibroblastenzelllinie; 1 mM to 10 mM): inhibierender Einfluss
zytotoxische Wirkung (Fibroblastenzelllinie; 10mM): deutlich zytotoxische Wirkung
proliferationshemmende Wirkung (Fibroblastenzelllinie; [6]): starke proliferationshemmende Wirkung
Proteinexpression von Wnt11 (Wnt11 [2]; cell lines 16A, SCC154, 60B and Carey24, 24 h, 1mM): starke Herunterregulation von Wnt11
Wnt11 Proteinexpression (Wnt11 [2]; cell lines 16B and 60A, 24 h, 1mM): Rückgang der Wnt11 Proteinexpression, auch wenn dieser geringer ist
Proteinexpression von Wnt11 (Wnt11 [2]; dose dependence, six HNSCC cell lines (Fig. 4B)): dosisabhängig in Reaktion auf 1,8-Cineol abnimmt
Expressionslevel von aktivem β-Catenin (aktivem β-Catenin): starke Abnahme von aktivem β-Catenin
endolysosomale Lokalisation von GSK-3 [3]: Rückgang der endolysosomalen Lokalisation von Phospho-GSK-3 (Serin-9/-21); also recorded: verringerte endolysosomale Lokalisation von GSK-3
Proliferation und zelluläre Lebensfähigkeit von HNSCC-Zellen (HNSCC-Zellen): stark verringerte zelluläre Lebensfähigkeit
Proliferation und zelluläre Lebensfähigkeit von HNSCC-Zellen (HNSCC-Zellen; listed as Cineol): starker Rückgang der Proliferation und zellulären Lebensfähigkeit
Expressionslevel von GSK-3α/β (Tyrosin-279/-216) [4]: nicht nennenswert beeinflusst
Einfluss auf die Progression und Vitalität von HNSCC (HNSCC-Zelllinien; 1 mM to 10 mM): inhibierender Einfluss
zytotoxische Wirkung (HNSCC-Zelllinien; 10mM): deutlich zytotoxische Wirkung
proliferationshemmende Wirkung (HNSCC-Zelllinien; [6]): starke proliferationshemmende Wirkung
Level von bzw. Gehalt an phosphoryliertem GSK-3α/β (Serin-9/-21) [5]: verringerten Level von bzw. Gehalt an phosphoryliertem GSK-3α/β (Serin-9/-21)
